Values quoted from earlier work as cited in PMC9762682, “Tocotrienols: Exciting Biological and Pharmacological Properties of Tocotrienols and Naturally Occurring Compounds, Part II” (Annals of clinical case reports, 2022).
Like-named read-outs stand apart in the source and are kept apart here. Marks after values point to notes of the source that are not given here.

Key:
[1] = parameters: method as in ref 16 = [16]; PMID 27493840; doi:10.4172/2155-9880.1000434; 16. Qureshi AA , Khan DA , Silswal N , Saleem S , Qureshi N . Evaluation of pharmacokinetics and bioavailability of higher doses of δ-tocotrienol in healthy fed humans . J Clin Exp Cardiol . 2016; 7
[2] = parameters: method as in ref 14 = [14]; PMID 27493840; doi:10.4172/2155-9880.1000434; 14. Qureshi AA , Khan DA , Saleem S , Silswal N , Trias AM , Tan B , Pharmacokinetics and bioavailability of Annatto δ-tocotrienol in healthy fed subjects . J Clin Exp Cardiol . 2015; 6 : 11 . 10.417; settings: for time of appearance in the plasma: after δ-tocotrienol administration to well-fed subjects; for Elimination of Half-life time (t1/2) / Elimination rate constant (ke) / Plasma Peak Concentration (Cmax) / Time to achieve plasma peak (Tmax): healthy fed subjects
[3] = 0 Hr., single dose 750 mg δ-tocotrienol
[4] = 0 Hr., single dose 1000 mg δ-tocotrienol
[5] = 1 hr., single dose 750 mg δ-tocotrienol
[6] = 1 hr., single dose 1000 mg δ-tocotrienol
[7] = 2 hr., single dose 750 mg δ-tocotrienol
[8] = 2 hr., single dose 1000 mg δ-tocotrienol
[9] = 4 hr., single dose 750 mg δ-tocotrienol
[10] = 4 hr., single dose 1000 mg δ-tocotrienol
[11] = 6 hr., single dose 750 mg δ-tocotrienol
[12] = 6 hr., single dose 1000 mg δ-tocotrienol
[13] = 8 hr., single dose 750 mg δ-tocotrienol
[14] = 8 hr., single dose 1000 mg δ-tocotrienol
[15] = single dose 750 mg δ-tocotrienol
[16] = single dose 1000 mg δ-tocotrienol
[17] = plasma tocol after single 125 mg δ-tocotrienol dose
[18] = plasma tocol after single 250 mg δ-tocotrienol dose
[19] = plasma tocol after single 500 mg δ-tocotrienol dose
[20] = plasma tocol after single dose 750 mg δ-tocotrienol
[21] = plasma tocol after single dose 1000 mg δ-tocotrienol

Row | plasma tocol level [1, 3] [ng/mL] | plasma tocol level [1, 4] [ng/mL] | plasma tocol level [1, 5] [ng/mL] | plasma tocol level [1, 6] [ng/mL] | plasma tocol level [1, 7] [ng/mL] | plasma tocol level [1, 8] [ng/mL] | plasma tocol level [1, 9] [ng/mL] | plasma tocol level [1, 10] [ng/mL] | plasma tocol level [1, 11] [ng/mL] | plasma tocol level [1, 12] [ng/mL] | plasma tocol level [1, 13] [ng/mL] | plasma tocol level [1, 14] [ng/mL] | Total tocols (sum of 0-8 h) [1, 15] [ng/mL] | Total tocols (sum of 0-8 h) [1, 16] [ng/mL] | time of appearance in the plasma [2] [h] | Elimination of Half-life time (t1/2) [2, 17] | Elimination rate constant (ke) [2, 17] | Plasma Peak Concentration (Cmax) [2, 17] | Time to achieve plasma peak (Tmax) [2, 17] [h] | Elimination rate constant (ke) [2, 18] | Compound | other results
1 | 542 ± 11 | 639 ± 38 | 525 ± 54 | 763 ± 69 | 599 ± 14 | 1025 ± 58 | 704 ± 29 | 1525 ± 32 | 621 ± 28 | 717 ± 56 | 278 ± 16 | 516 ± 51 | 3269 | 5185 | > 2 | 1.82 ± 0.23 h | 1.247 ± 0.073^a h-1 | 956.09 ± 70.06^a ng/mL | 5.18 ± 1.17 | 0.489 ± 0.063^b h-1 | Cc1cc(O)c(C)c2c1O[C@](C)(CCC[C@H](C)CCC[C@H](C)CCCC(C)C)CC2 [β-Tocopherol] | Elimination of Half-life time (t1/2) [2, 18]: 3.97 ± 0.66^a h; Plasma Peak Concentration (Cmax) [2, 18]: 949.91 ± 126.37^a ng/mL; Time to achieve plasma peak (Tmax) [2, 18]: 3.09 ± 0.30 h; Elimination of Half-life time (t1/2) [2, 19]: 3.27 ± 0.61^a h; Elimination rate constant (ke) [2, 19]: 0.275 ± 0.023^c h-1; Plasma Peak Concentration (Cmax) [2, 19]: 1045.09 ± 147.81^a ng/mL; Time to achieve plasma peak (Tmax) [2, 19]: 3.09 ± 0.32 h
2 | 1145 ± 61 | 1220 ± 93 | 1565 ± 62 | 1516 ± 21 | 1568 ± 77 | 1830 ± 91 | 1885 ± 91 | 1937 ± 72 | 1538 ± 22 | 1315 ± 48 | 137 ± 102 | 519 ± 20 | 7838 | 8337 | > 2 | 3.92 ± 0.86^a h | 0.542 ± 0.062^a h-1 | 979.00 ± 79.45^a ng/mL | 4.00 | 0.404 ± 0.032^b h-1 | CC(C)=CCC/C(C)=C/CC/C(C)=C/CC[C@]1(C)CCc2c(C)c(O)cc(C)c2O1 [β-Tocotrienol] | Area Under the Curve-t0 - t8 (AUC0-8) [1, 20]: 11473.96 ± 316.15^c ng/ml; Area Under the Curve-t0 - ∞ (AUC0-∞) [1, 20]: 11709.23 ± 459.66^c ng/ml; Elimination of Half-life time (t1/2) [1, 20]: 1.02 ± 0.34^c h; Elimination rate constant (ke) [1, 20]: 0.681 ± 0.103^b h-1; Peak Plasma Concentration (Cmax) [1, 20]: 1885.20 ± 90.95^c ng/ml; Time to achieve plasma peak (Tmax) [1, 20]: 4.00 ^a h; Elimination of Half-life time (t1/2) [1, 21]: 2.11 ± 0.03^b h; Elimination rate constant (ke) [1, 21]: 0.327 ± 0.167^a h-1; Peak Plasma Concentration (Cmax) [1, 21]: 1948.13 ± 66.43^c ng/ml; Time to achieve plasma peak (Tmax) [1, 21]: 3.33 ± 1.16^a h; Elimination of Half-life time (t1/2) [2, 18]: 3.90 ± 0.79^a h; Plasma Peak Concentration (Cmax) [2, 18]: 1083.73 ± 82.26^b ng/mL; Elimination of Half-life time (t1/2) [2, 19]: 4.39 ± 0.63^a h; Elimination rate constant (ke) [2, 19]: 0.192 ± 0.014^c h-1; Plasma Peak Concentration (Cmax) [2, 19]: 1279.00 ± 116.44^c ng/mL; Time to achieve plasma peak (Tmax) [2, 19]: 3.00 h
3 | 319 ± 30 | 330 ± 34 | 404 ± 44 | 412 ± 17 | 433 ± 26 | 457 ± 33 | 547 ± 12 | 589 ± 39 | 273 ± 67 | 241 ± 28 | 212 ± 16 | 183 ± 14 | 2188 | 2212 | > 2 | 2.45 ± 0.37^a h | 0.184 ± 0.121^a h-1 | 507.64 ± 24.68^a ng/mL | 5.46 ± 0.93 | 0.146 ± 0.013^b h-1 | Cc1c(O)cc2c(c1C)O[C@](C)(CCC[C@H](C)CCC[C@H](C)CCCC(C)C)CC2 [γ-Tocopherol] | Total tocols (sum of 0-8 h) ([1]; single dose 750 mg δ-tocotrienol, listed as γ-tocopherol): 5544 ng/mL; Elimination of Half-life time (t1/2) [2, 18]: 5.17 ± 1.06^b h; Plasma Peak Concentration (Cmax) [2, 18]: 643.36 ± 37.26^b ng/mL; Time to achieve plasma peak (Tmax) [2, 18]: 3.00 h; Elimination of Half-life time (t1/2) [2, 19]: 4.99 ± 0.88^b h; Elimination rate constant (ke) [2, 19]: 0.126 ± 0.026^a h-1; Plasma Peak Concentration (Cmax) [2, 19]: 605.64 ± 48.17^b ng/mL; Time to achieve plasma peak (Tmax) [2, 19]: 2.82 ± 0.41 h
4 | 894 ± 69 | 888 ± 22 | 949 ± 11 | 986 ± 18 | 1195 ± 69 | 1266 ± 25 | 1348 ± 93 | 1473 ± 71 | 726 ± 51 | 765 ± 44 | 432 ± 45 | 500 ± 25 | 5544 | 5878 | > 2 | 3.25 ± 0.79^a h | 0.118 ± 0.032^a h-1 | 341.18 ± 62.19^a ng/mL | 6.00 | 0.076 ± 0.008^b h-1 | Cc1cc(O)cc2c1O[C@](C)(CCC[C@H](C)CCC[C@H](C)CCCC(C)C)CC2 [δ-Tocopherol] | Total tocols (sum of 0-8 h) ([1]; single dose 750 mg δ-tocotrienol, listed as δ-tocopherol): 13117 ng/mL; Elimination of Half-life time (t1/2) [2, 18]: 5.22 ± 0.62^b h; Plasma Peak Concentration (Cmax) [2, 18]: 756.27 ± 72.70^b ng/mL; Time to achieve plasma peak (Tmax) [2, 18]: 4.18 ± 0.60 h; Elimination of Half-life time (t1/2) [2, 19]: 3.58 ± 0.67^a h; Elimination rate constant (ke) [2, 19]: 0.183 ± 0.027^c h-1; Plasma Peak Concentration (Cmax) [2, 19]: 1027.73 ± 71.93^c ng/mL; Time to achieve plasma peak (Tmax) [2, 19]: 3.00 h

Row | Compound | plasma tocol level [1, 3] [ng/mL] | plasma tocol level [1, 4] [ng/mL] | plasma tocol level [1, 5] [ng/mL] | plasma tocol level [1, 6] [ng/mL] | plasma tocol level [1, 7] [ng/mL] | plasma tocol level [1, 8] [ng/mL] | plasma tocol level [1, 9] [ng/mL] | plasma tocol level [1, 10] [ng/mL] | plasma tocol level [1, 11] [ng/mL] | plasma tocol level [1, 12] [ng/mL] | plasma tocol level [1, 13] [ng/mL] | plasma tocol level [1, 14] [ng/mL] | Total tocols (sum of 0-8 h) [1, 15] [ng/mL] | Total tocols (sum of 0-8 h) [1, 16] [ng/mL] | time of appearance in the plasma [2] [h] | Elimination of Half-life time (t1/2) [2, 17] | Elimination rate constant (ke) [2, 17] | Plasma Peak Concentration (Cmax) [2, 17] | Time to achieve plasma peak (Tmax) [2, 17] [h] | Elimination rate constant (ke) [2, 18] | other results
5 | CC(C)=CCC/C(C)=C/CC/C(C)=C/CC[C@]1(C)CCc2cc(O)c(C)c(C)c2O1 [γ-Tocotrienol] | 795 ± 19 | 843 ± 13 | 1035 ± 10 | 1065 ± 7 | 1183 ± 16 | 1251 ± 32 | 1352 ± 23 | 1387 ± 10 | 361 ± 74 | 484 ± 17 | 329 ± 17 | 374 ± 27 | 5055 | 5404 | > 2 | 3.82 ± 0.99^a h | 0.113 ± 0.026^a h-1 | 281.34 ± 21.22^a ng/mL | 3.00 | 0.133 ± 0.037^a h-1 | Area Under the Curve-t0 - ∞ (AUC0-∞) [1, 20]: 7895.14 ± 73.43^b ng/ml; Elimination of Half-life time (t1/2) [1, 20]: 1.96 ± 0.06^b h; Elimination rate constant (ke) [1, 20]: 0.353 ± 0.125^a h-1; Peak Plasma Concentration (Cmax) [1, 20]: 1352.41 ± 28.14^b ng/ml; Time to achieve plasma peak (Tmax) [1, 20]: 4.00^a h; Area Under the Curve-t0 - ∞ (AUC0-∞) [1, 21]: 8626.41 ± 277.17^b ng/ml; Elimination of Half-life time (t1/2) [1, 21]: 2.12 ± 0.14^b h; Elimination rate constant (ke) [1, 21]: 0.328 ± 0.286^a h-1; Time to achieve plasma peak (Tmax) [1, 21]: 4.00^a h; Time to achieve plasma peak (Tmax) [2, 18]: 3.00 h; Elimination of Half-life time (t1/2) [2, 19]: 2.25 ± 0.32^c h; Elimination rate constant (ke) [2, 19]: 0.097 ± 0.021^b h-1; Plasma Peak Concentration (Cmax) [2, 19]: 1224.64 ± 61.28^c ng/mL; Time to achieve plasma peak (Tmax) [2, 19]: 3.55 ± 0.52 h
